Results on 16 compounds are retold here after PubChem BioAssay (NCI).

Several values for one entry are separate records, joined by “and”; a condition that tells them apart may be missing. Equal values may be shown once.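 Growth conditions: 96-well plates. Treatment: test compound, 48 hours, 5 concentrations. Analysis: linear interpolation between bracketing concentrations; unreached endpoints set to highest concentration. The concentration for 50% growth inhibition is given as GI50. The concentration for full growth arrest is given as TGI.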 *1 amine or outer side, *2 acyl side, *3 side chain or, on linkers, in order; H or OH if unused. Where a SMILES comes first, the peptide text is derived from it. Bridges are numbered along the chain shown (N, C = ends). [ ]: non-standard residue; d: D form. ξ: configuration not given here. X4 = CCC(C)C(N[*:1])C(O)CC(=O)O[C@H](C(=O)C(C)C(=O)[*:2])C(C)C; NMeY = CN[C@@H](Cc1ccc(O)cc1)C(=O)O; ξNMeL = CNC(CC(C)C)C(=O)O; ξT = CC(O)C(N)C(=O)O Bounds are passed on as bounds.

In general, TGI refers to the concentration at which net growth stops. A higher TGI goes with lower sensitivity of the cells. In general, GI50 refers to the concentration giving 50% growth inhibition.

What all share (experiment): DTP human tumour cell line panel, 48 h
For assay [1], the system named is HS 578T breast.
The subject of assay [2] is SK-MEL-5 melanoma.
Assay [3] relates to EKVX NSCLC.
Assay [4] deals with HCC-2998 colon.
Assay [5] relates to MDA-MB-231 breast.
Assay [6] relates to UO-31 renal.
For assay [7], the system named is NCI-H23 lung.
Assay [8] concerns BT-549 breast.
The subject of assay [9] is OVCAR-4 ovarian.

With `Cc1[nH]c(-c2ccccc2)c(-c2ccc(Cl)cc2)c1C(=O)ONC(=O)c1ccccc1`, the TGI in assay [1] came out at 5.72 µM; in [2], 14.1 µM; in assay [3], 9.77 µM; in assay [4], 16.2 µM; in assay [5], 12.1 µM; in assay [6], 2.89 µM. Moreover, the TGI amounted to 15.3 µM in assay [7] and 9.94 µM in [8].

As to `O=C1[C@@H]2Cc3c([nH]c4ccccc34)C(C3CCCCC3)N2C(=O)[C@@H]2CCCN12` (some centres not stated), the total growth inhibition concentration (TGI) was 68.7 µM in assay [1]; 35.7 µM in assay [2]; above 100 µM in assay [3]; 50.2 µM in assay [5]; above 100 µM in [6]; above 100 µM in assay [9]. In addition, the TGI in assay [7] is above 100 µM; in [8] it was 88 µM.

In the case of `CC1=CC[C@@H]2CC[C@]3(C)[C@H](CC[C@@H]4[C@@]5(C)CCCNC(C)(C)[C@@H]5CC[C@]43C)[C@H]2[C@@H]1C`, the GI50 was 1.79 µM in assay [1]; 1.7 µM in assay [2]; 1.74 µM in assay [3]; 1.8 µM in [5]; 1.47 µM in [6]; 1.78 µM in assay [7]. Also, the GI50 in [8] is 1.66 µM. Further, the TGI in assay [1] turned out to be 4.04 µM; in [2], 3.08 µM; in assay [3], 3.38 µM; in [5] it was 3.47 µM; in assay [6], 2.82 µM; in assay [7] it was 3.37 µM. The same compound registered a TGI in assay [8] of 3.14 µM.

On to `CCOC(=O)c1cn(-c2ccc(Cl)cc2)c(=O)n2c1nc1ccccc12`, for which the TGI in assay [2], in assay [3], in assay [4], in [5], in assay [6] and in [9] was above 100 µM throughout. For the same compound, the TGI in assay [7] and in [8] was above 100 µM in each case.

For `Cc1ccc(O)c(C2=NNC(c3cccc(Br)c3)C2)c1` (configuration not stated), the TGI in assay [1], in [2], in assay [3], in [4], in [6] and in assay [7] was above 100 µM each time. In assay [8], this compound showed a TGI above 100 µM.

In the case of `CC[N+](CC)=c1ccc2nc3c(cc(N)c4ccccc43)oc-2c1`, the GI50 is 0.125 µM in assay [2]; 0.257 µM in [4]; 0.363 µM in assay [5]; 0.125 µM in assay [7]; 1.11 µM in assay [8]. Further, the total growth inhibition concentration (TGI) in [2] came to 0.27 µM; in assay [4] it was 0.661 µM; in assay [5], 1.73 µM; in assay [7], 0.358 µM; in assay [8] it was 2.41 µM.

Consider `CSC1SCC2C(=O)N(C)C3(CC3C)C(=O)OCC(NC(=O)c3nc4ccccc4cc3O)C(=O)NC(C)C(=O)N(C)C1C(=O)N(C)C1(CC1C)C(=O)OCC(NC(=O)c1nc3ccccc3cc1O)C(=O)NC(C)C(=O)N2C` (configuration not stated), for which the TGI in assay [1] is below 0.0001 µM; in assay [3] it was 0.648 µM and 0.0992 µM; in assay [4] it was below 0.0001 µM; in assay [6] it was 0.0093 µM; in [9], 0.000325 µM; in [7], below 0.0001 µM.

`CSc1nncc(-c2cc3c(c(SC)n2)CCC3)n1`: the TGI in assay [2], in assay [3], in [5], in [6], in [9] and in assay [7] was above 100 µM each time. For the same compound, in assay [8], the TGI is above 100 µM.

For `O=C(NCCNCCO)N/N=C/c1ccc(Cl)cc1`, the TGI in [1], in assay [2], in assay [4], in [5], in [6] and in assay [7] was above 100 µM each time. The same compound had a TGI in assay [8] above 100 µM.

For the compound `O=C(N=Nc1ccccc1Br)NNc1ccccc1Br`, the TGI in assay [2] is above 100 µM; in [4], 56.6 µM; in [5], above 100 µM; in [6] it was above 100 µM; in assay [9] it was above 100 µM; in assay [7], above 100 µM. The TGI in assay [8] was above 100 µM.

As for `COc1ccc(-c2c(C#N)c(-c3ccccc3)n(NS(=O)(=O)c3ccccc3)c(=O)c2C#N)cc1`, the TGI in [1], in assay [2], in [3], in [4], in [5] and in assay [9] was above 100 µM in each case. The compound further had a TGI in [8] above 100 µM.

With `CCOC(=O)c1sc2c(c1OC(=O)c1ccccc1)c(=O)n(-c1ccccc1)c(=S)n2-c1ccccc1`, the TGI was 75.6 µM in assay [1]; 49.7 µM in assay [2]; above 100 µM in assay [3]; 74.5 µM in assay [4]; 87.2 µM in assay [5]; 32 µM in assay [9]. In [7], this compound gave a TGI of 48.9 µM.

Turning to `CCC(C)C1NC(=O)C(NC(=O)C(CC(C)C)N(C)C(=O)[C@@H]2CCCN2)C(C)OC(=O)[C@H](Cc2ccc(OC)cc2)N(C)C(=O)[C@@H]2CCCN2C(=O)[C@H](CC(C)C)NC(=O)C(C)C(=O)[C@H](C(C)C)OC(=O)CC1O` (some centres not stated) (H-P[ξNMeL][ξT][X4]LP[NMeY](Me); ester 3-C), the TGI was 0.00748 µM in assay [2]; 0.0474 µM in assay [3]; 0.0104 µM and 0.0108 µM in assay [4]; 0.118 µM and 0.444 µM in assay [6]; 0.00369 µM and 0.0185 µM in assay [9]; 0.00218 µM in assay [7]. For the same compound, in assay [8], the TGI stood at 0.0104 µM. The GI50 in assay [6] was 0.0253 µM.

For `COc1c/c(=C2/C=c3ccccc3=N2)[nH]/c1=C/c1[nH]c(C)cc1C`, in assay [2], the GI50 was 0.0304 µM and the TGI was found to be 0.0835 µM. In addition, in assay [9], the GI50 was 0.106 µM and the TGI is above 100 µM.

In the case of `OCCN=C1Nc2ccc(Cl)cc2C(=S)N2CSC[C@@H]12`, the TGI in [2], in assay [4], in assay [5], in assay [6], in [9] and in [7] was above 100 µM throughout.

Turning to `NC(N)=N/N=C/c1nc2sccn2c1[N+](=O)[O-]`, the TGI in assay [1] is 98.4 µM; in assay [2], 33.9 µM; in assay [3], above 100 µM; in [5], 80.5 µM; in assay [6] it was above 100 µM; in assay [9], 33.6 µM. In addition, the TGI in assay [7] was 36.7 µM; in assay [8] it was above 100 µM.
